This is an account of results in patent publication US11395822B2, “Methods for treating Huntington's disease” (PTC Therapeutics, Inc., priority 2017, dated 2022).

This test concerns Endogenous Huntingtin Protein. The test is described as follows: Endogenous Huntingtin Protein Assay (ELISA-based MSD electrochemiluminescence). Type of test: cell-based. As to conditions: MSD plates coated with MW1 (expanded polyglutamine) or MAB2166 capture antibody. As for the experimental part: Compounds of Formula (I) were tested using the Meso Scale Discovery (MSD) Assay provided in International Application No. PCT/US2016/066042, filed on Dec. 11, 2016 and claiming priority to U.S. Provisional Application U.S. 62/265,652 filed on Dec. 10, 2015, and published as International Publication No. WO 2017/100726 on Jun. 15, 2017, the entire contents of which are incorporated herein by reference.
The Endogenous Huntingtin Protein assay used in Example 1 was developed using the ELISA-based MSD electrochemiluminescence assay platform.
Endogenous Huntingtin Protein Assay
Meso Scale Discovery (MSD) 96-well or 384-well plates were coated overnight at 4° C. with MW1 (expanded polyglutamine) or MAB2166 monoclonal antibody (for capture) at a concentration of 1 μg/mL in PBS (30 μL per well). Plates were then washed three times with […] wash buffer (0.05% Tween-20 in PBS) and blocked (100 μL blocking buffer; 5% BSA in PBS) for 4-5 hours at room temperature with rotational shaking and then washed three times with wash buffer.
Samples (25 μL) were transferred to the antibody-coated MSD plate and incubated overnight at 4° C. After removal of the lysates, the plate was washed three times with wash buffer, and 25 μL of #5656S (Cell signaling; rabbit monoclonal) secondary antibody (diluted to 0.25 μg/mL in 0.05% Tween-20 in blocking buffer) was added to each well and incubated with shaking for 1 Hour at room temperature. Following incubation with the secondary antibody, the wells were rinsed with wash buffer after which 25 μL of goat anti-rabbit SULFO TAG secondary detection antibody (required aspect of the MSD system) (diluted to 0.25 μg/mL in 0.05% Tween-20 in blocking buffer) was added to each well and incubated with shaking for 1 hour at room temperature. After rinsing three times with wash buffer, 150 μL of read buffer T with surfactant (MSD) were added to each empty well, and the plate was imaged on a SI 6000 imager (MSD) according to manufacturers' instructions provided for 96- or 384-well plates.
As for `Cc1cn2nc(-c3cc(=O)n4cc(N5CCN[C@H](C)C5)ccc4n3)cc(C)c2n1` [Compound 886, (R)-2-(2,8-dimethylimidazo[1,2-b]pyridazin-6-yl)-7-(3-methylpiperazin-1-yl)-4H-pyrido[1,2-a]pyrimidin-4-one], the IC50 is at most 0.1 µM.
With `Cc1cn2nc(-c3cc(=O)n4cc(N5CCNC(C)(C)C5)ccc4n3)cc(C)c2n1` [Compound 899, 2-(2,8-dimethylimidazo[1,2-b]pyridazin-6-yl)-7-(3,3-dimethylpiperazin-1-yl)-4H-pyrido[1,2-a]pyrimidin-4-one], the concentration for half-maximal inhibition (IC50) fell in the range of 0.1 to 0.5 µM.
As to `Cc1cn2nc(-c3cc(=O)n4cc(N5CCNC6(CC6)C5)cc(C)c4n3)cc(C)c2n1` [Compound 905, 2-(2,8-dimethylimidazo[1,2-b]pyridazin-6-yl)-9-methyl-7-(4,7-diazaspiro[2.5]octan-7-yl)-4H-pyrido[1,2-a]pyrimidin-4-one], the IC50 is 1 to 3 µM.
